From US8829194B2, “Crystalline forms of the sodium salt of (4-{4-[5-(6-trifluoromethyl-pyridin-3-ylamino)-pyridin-2-yl]-phenyl}-cyclohexyl)-acetic acid” (Novartis AG, priority 2010, dated 2014)

Experiments:
Format in all cases: physicochemical
[1] = Humidity microbalance analysis (VTI), moisture sorption at 25° C.; settings: for hygroscopicity / moisture uptake in words: variations in humidity
Text: Thus, Modification C retains a stable weight from 0% relative humidity to 80% relative humidity while Modification A loses water with decreasing humidity and gains moisture with increasing humidity. With Modification C, a re-hydration step and the possible variability in water content between batches may thus be eliminated.
Modification N is particularly suitable for industrial scale-up. It is a crystalline anhydrous form.
Modification O is particularly suitable for industrial scale-up. It is a crystalline anhydrous form.

[2] = Water loss as a function of temperature by TG/DTA (loss on drying, thermal transitions); settings: for LOD (thermal transitions): DTA signals, temperature at which the water is lost; for Loss On Drying (LOD) (%): total water loss by thermogravimetry, rt-295° C., 10°/min
Text: (ii) Thermogravimetric/Differential Thermal Analysis (TG/DTA) […]
The data listed below show the total water loss (LOD by thermogravimetry (TG)) and thermal transitions (DTA signals) show the temperature at which the water is lost.

[3] = Physical stability of the crystalline forms (relative humidity, absorption-desorption isotherm FIG. 1, temperature, storage); settings: absorption-desorption isotherm, FIG. 1

## O=C([O-])C[C@H]1CC[C@H](c2ccc(-c3ccc(Nc4ccc(C(F)(F)F)nc4)cn3)cc2)CC1.[Na+] [Modification O, sodium salt of (4-{4-[5-(6-trifluoromethyl-pyridin-3-ylamino)-pyridin-2-yl]-phenyl}-cyclohexyl)-acetic acid]
[1]
  relative humidity at which moisture gain starts / becomes significant: 80 % relative humidity
  hygroscopicity / moisture uptake in words: low hygroscopicity
[1]; 0 % residual humidity
  Mass uptake (% water absorbed): 0.0%
[1]; 10 % residual humidity
  Mass uptake (% water absorbed): 0.0%
[1]; 50 % residual humidity
  Mass uptake (% water absorbed): −0.5%
[1]; 60 % residual humidity
  Mass uptake (% water absorbed): −0.5%
[1]; 70 % residual humidity
  Mass uptake (% water absorbed): −0.5%
[1]; 79 % residual humidity
  Mass uptake (% water absorbed): −0.4%
[1]; 90 % residual humidity
  Mass uptake (% water absorbed): 4.3%
[1]; 95 % residual humidity
  Mass uptake (% water absorbed): 13.3%
[2]
  LOD (thermal transitions): None
  Loss On Drying (LOD) (%): 1.2%

## O=C([O-])C[C@H]1CC[C@H](c2ccc(-c3ccc(Nc4ccc(C(F)(F)F)nc4)cn3)cc2)CC1.[Na+] [Modification I, sodium salt of (4-{4-[5-(6-trifluoromethyl-pyridin-3-ylamino)-pyridin-2-yl]-phenyl}-cyclohexyl)-acetic acid]
[2]; listed as I
  Loss On Drying (LOD) (%): 9.5%

## O=C([O-])C[C@H]1CC[C@H](c2ccc(-c3ccc(Nc4ccc(C(F)(F)F)nc4)cn3)cc2)CC1.[Na+] [Modification P, sodium salt of (4-{4-[5-(6-trifluoromethyl-pyridin-3-ylamino)-pyridin-2-yl]-phenyl}-cyclohexyl)-acetic acid]
[2]; listed as P
  LOD (thermal transitions): 65 °C
  Loss On Drying (LOD) (%): 10.9%

## O=C([O-])C[C@H]1CC[C@H](c2ccc(-c3ccc(Nc4ccc(C(F)(F)F)nc4)cn3)cc2)CC1.[Na+] [Modification M, sodium salt of (4-{4-[5-(6-trifluoromethyl-pyridin-3-ylamino)-pyridin-2-yl]-phenyl}-cyclohexyl)-acetic acid]
[3]
  relative humidity range in which the form is stable: below 10 % relative humidity
[2]; listed as M
  LOD (thermal transitions): None
  Loss On Drying (LOD) (%): 0%

## O=C([O-])C[C@H]1CC[C@H](c2ccc(-c3ccc(Nc4ccc(C(F)(F)F)nc4)cn3)cc2)CC1.[Na+] [Modification N, sodium salt of (4-{4-[5-(6-trifluoromethyl-pyridin-3-ylamino)-pyridin-2-yl]-phenyl}-cyclohexyl)-acetic acid]
[1]
  relative humidity at which moisture gain starts / becomes significant: 70 % relative humidity
  hygroscopicity / moisture uptake in words: low hygroscopicity
[1]; 0 % residual humidity
  Mass uptake (% water absorbed): 0.0%
[1]; 10 % residual humidity
  Mass uptake (% water absorbed): 0.1%
[1]; 50 % residual humidity
  Mass uptake (% water absorbed): 0.7%
[1]; 60 % residual humidity
  Mass uptake (% water absorbed): 0.9%
[1]; 70 % residual humidity
  Mass uptake (% water absorbed): 1.0%
[1]; 79 % residual humidity
  Mass uptake (% water absorbed): 3.7%
[1]; 90 % residual humidity
  Mass uptake (% water absorbed): 18.2%
[1]; 95 % residual humidity
  Mass uptake (% water absorbed): 19.1%
[2]
  LOD (thermal transitions): None
  Loss On Drying (LOD) (%): 0.3%

## O=C([O-])C[C@H]1CC[C@H](c2ccc(-c3ccc(Nc4ccc(C(F)(F)F)nc4)cn3)cc2)CC1.[Na+] [Modification H, sodium salt of (4-{4-[5-(6-trifluoromethyl-pyridin-3-ylamino)-pyridin-2-yl]-phenyl}-cyclohexyl)-acetic acid]
[2]; listed as H
  LOD (thermal transitions): 68.3 °C
  Loss On Drying (LOD) (%): 3%

## O=C([O-])C[C@H]1CC[C@H](c2ccc(-c3ccc(Nc4ccc(C(F)(F)F)nc4)cn3)cc2)CC1.[Na+] [Modification G, sodium salt of (4-{4-[5-(6-trifluoromethyl-pyridin-3-ylamino)-pyridin-2-yl]-phenyl}-cyclohexyl)-acetic acid]
[2]; listed as G
  Loss On Drying (LOD) (%): 11.7%

## O=C([O-])C[C@H]1CC[C@H](c2ccc(-c3ccc(Nc4ccc(C(F)(F)F)nc4)cn3)cc2)CC1.[Na+] [Modification L, sodium salt of (4-{4-[5-(6-trifluoromethyl-pyridin-3-ylamino)-pyridin-2-yl]-phenyl}-cyclohexyl)-acetic acid]
[2]; listed as L
  LOD (thermal transitions): 65 °C
  Loss On Drying (LOD) (%): 14.9%

## O=C([O-])C[C@H]1CC[C@H](c2ccc(-c3ccc(Nc4ccc(C(F)(F)F)nc4)cn3)cc2)CC1.[Na+] [Modification B, sodium salt of (4-{4-[5-(6-trifluoromethyl-pyridin-3-ylamino)-pyridin-2-yl]-phenyl}-cyclohexyl)-acetic acid]
[2]; listed as B
  Loss On Drying (LOD) (%): 6.9%

## O=C([O-])C[C@H]1CC[C@H](c2ccc(-c3ccc(Nc4ccc(C(F)(F)F)nc4)cn3)cc2)CC1.[Na+] [Modification E, sodium salt of (4-{4-[5-(6-trifluoromethyl-pyridin-3-ylamino)-pyridin-2-yl]-phenyl}-cyclohexyl)-acetic acid]
[2]; listed as E
  Loss On Drying (LOD) (%): 9.5%

## O=C([O-])C[C@H]1CC[C@H](c2ccc(-c3ccc(Nc4ccc(C(F)(F)F)nc4)cn3)cc2)CC1.[Na+] [Modification F, sodium salt of (4-{4-[5-(6-trifluoromethyl-pyridin-3-ylamino)-pyridin-2-yl]-phenyl}-cyclohexyl)-acetic acid]
[2]; listed as F
  LOD (thermal transitions): 90 °C
  Loss On Drying (LOD) (%): 3.5%

## O=C([O-])C[C@H]1CC[C@H](c2ccc(-c3ccc(Nc4ccc(C(F)(F)F)nc4)cn3)cc2)CC1.[Na+] [Modification D, sodium salt of (4-{4-[5-(6-trifluoromethyl-pyridin-3-ylamino)-pyridin-2-yl]-phenyl}-cyclohexyl)-acetic acid]
[2]; listed as D
  LOD (thermal transitions): 84.5 °C
  Loss On Drying (LOD) (%): 12.4%

## O=C([O-])C[C@H]1CC[C@H](c2ccc(-c3ccc(Nc4ccc(C(F)(F)F)nc4)cn3)cc2)CC1.[Na+] [Modification J, sodium salt of (4-{4-[5-(6-trifluoromethyl-pyridin-3-ylamino)-pyridin-2-yl]-phenyl}-cyclohexyl)-acetic acid]
[2]; listed as J
  Loss On Drying (LOD) (%): 3.1%
